The supplement of paper PMC4862054

Columns and labels:
Conditions in all cases: 72 h
DU-4475 [1] = tested on: DU-4475
Experimental: (§1)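 Drug sensitivity and resistance testing (DSRT) of breast cancer cell lines in 384-well plates, 5 concentrations in 10-fold dilutions over a compound-specific 10,000-fold range. After 72 h, cytotoxicity was read by CellTox Green fluorescence and viability by CellTiter-Glo luminescence (multiplexed), normalised to DMSO and benzethonium chloride controls. EC50 is the inflection point of the fitted dose-response curve (bottom asymptote free, so it can be relative for partial curves) and is censored at the highest tested concentration. Rows with DSS 0 (no meaningful response) were excluded.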

CAL-120 [2] = tested on: CAL-120
Experimental: as §1

MCF-10A [3] = tested on: MCF-10A
Experimental: as §1

CAL-85-1 [4] = tested on: CAL-85-1
Experimental: as §1

MDA-MB-231 [5] = tested on: MDA-MB-231
Experimental: as §1

MFM-223 [6] = tested on: MFM-223
Method in brief: (§2)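 Two sequential readouts followed a 72 h incubation of breast cancer cell lines with compound at 5 concentrations in 10-fold steps over a compound-specific 10,000-fold range: CellTox Green fluorescence (485/520 nm) for cell death, then CellTiter-Glo luminescence, after 10 min at room temperature, for viability. Each plate was normalised to 0.1 % DMSO and a positive kill control. Dose-response curves were fitted for EC50, censored at the top concentration.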

BT-474 [7] = tested on: BT-474
Method in brief: as §2

HDQ-P1 [8] = tested on: HDQ-P1
Method in brief: as §2

DU-4475 [9] = tested on: DU-4475; remark: listed apart in the source
Method in brief: as §2

CAL-120 [10] = tested on: CAL-120; remark: listed apart in the source
Method in brief: as §2

MCF-10A [11] = tested on: MCF-10A; remark: listed apart in the source
Method in brief: as §2

Hs578T [12] = tested on: Hs578T
Method in brief: as §2

CAL-85-1 [13] = tested on: CAL-85-1; remark: listed apart in the source
Method in brief: as §2

MDA-MB-231 [14] = tested on: MDA-MB-231; remark: listed apart in the source
Method in brief: as §2

MFM-223 [15] = tested on: MFM-223; remark: listed apart in the source
Experimental: as §1

BT-474 [16] = tested on: BT-474; remark: listed apart in the source
Experimental: as §1

HDQ-P1 [17] = tested on: HDQ-P1; remark: listed apart in the source
Experimental: as §1

MDA-MB-436 = tested on: MDA-MB-436
Experimental: as §1

HCC1937 [18] = tested on: HCC1937
Experimental: as §1

HCC1599 [19] = tested on: HCC1599
Experimental: as §1

MDA-MB-468 [20] = tested on: MDA-MB-468
Experimental: as §1

BT-549 = tested on: BT-549
Experimental: as §1

CAL-148 [21] = tested on: CAL-148
Experimental: as §1

MDA-MB-453 [22] = tested on: MDA-MB-453
Experimental: as §1

CAL-51 [23] = tested on: CAL-51
Experimental: as §1

HCC1143 = tested on: HCC1143
Method in brief: as §2

HCC1599 [24] = tested on: HCC1599; remark: listed apart in the source
Method in brief: as §2

MDA-MB-468 [25] = tested on: MDA-MB-468; remark: listed apart in the source
Method in brief: as §2

SK-BR-3 = tested on: SK-BR-3
Method in brief: as §2

CAL-148 [26] = tested on: CAL-148; remark: listed apart in the source
Method in brief: as §2

MDA-MB-453 [27] = tested on: MDA-MB-453; remark: listed apart in the source
Method in brief: as §2

CAL-51 [28] = tested on: CAL-51; remark: listed apart in the source
Method in brief: as §2

HCC1937 [29] = tested on: HCC1937; remark: listed apart in the source
Method in brief: (§3)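 Compound dissolved in 5 µl medium was placed in 384-well plates before 20 µl of breast cancer cell suspension was added, and the plates were incubated for 72 h. Cells then received 2.5 µl CellTiter-Blue for 2 h at 37 °C, and fluorescence was read at 560/590 nm. EC50 values come from percent-inhibition dose-response fits that were censored at the highest concentration, with plates normalised to vehicle and a positive kill control and rows with a zero drug sensitivity score excluded.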

Hs578T [30] = tested on: Hs578T; remark: listed apart in the source
Method in brief: as §3

HDQ-P1 [31] = tested on: HDQ-P1; remark: listed apart in the source
Method in brief: as §3

DU-4475 [32] = tested on: DU-4475; remark: listed apart in the source
Method in brief: as §3

CAL-85-1 [33] = tested on: CAL-85-1; remark: listed apart in the source
Method in brief: as §3

Row | SMILES | EC50, CellTox Green (DU-4475 [1]) [nM] | EC50, CellTox Green (CAL-120 [2]) [nM] | EC50, CellTox Green (MCF-10A [3]) [nM] | EC50, CellTox Green (CAL-85-1 [4]) [nM] | EC50, CellTox Green (MDA-MB-231 [5]) [nM] | EC50, CellTiter-Glo (MFM-223 [6]) [nM] | EC50, CellTiter-Glo (BT-474 [7]) [nM] | EC50, CellTiter-Glo (HDQ-P1 [8]) [nM] | EC50, CellTiter-Glo (DU-4475 [9]) [nM] | EC50, CellTiter-Glo (CAL-120 [10]) [nM] | EC50, CellTiter-Glo (MCF-10A [11]) [nM] | EC50, CellTiter-Glo (Hs578T [12]) [nM] | EC50, CellTiter-Glo (CAL-85-1 [13]) [nM] | EC50, CellTiter-Glo (MDA-MB-231 [14]) [nM] | EC50, CellTox Green (MFM-223 [15]) [nM] | EC50, CellTox Green (BT-474 [16]) [nM] | EC50, CellTox Green (HDQ-P1 [17]) [nM] | EC50, CellTox Green (MDA-MB-436) [nM] | EC50, CellTox Green (HCC1937 [18]) [nM] | EC50, CellTox Green (HCC1599 [19]) [nM] | EC50, CellTox Green (MDA-MB-468 [20]) [nM] | EC50, CellTox Green (BT-549) [nM] | EC50, CellTox Green (CAL-148 [21]) [nM] | EC50, CellTox Green (MDA-MB-453 [22]) [nM] | EC50, CellTox Green (CAL-51 [23]) [nM] | EC50, CellTiter-Glo (HCC1143) [nM] | EC50, CellTiter-Glo (HCC1599 [24]) [nM] | EC50, CellTiter-Glo (MDA-MB-468 [25]) [nM] | EC50, CellTiter-Glo (SK-BR-3) [nM] | EC50, CellTiter-Glo (CAL-148 [26]) [nM] | EC50, CellTiter-Glo (MDA-MB-453 [27]) [nM] | EC50, CellTiter-Glo (CAL-51 [28]) [nM] | EC50, CellTiter-Blue viability (HCC1937 [29]) [nM] | EC50, CellTiter-Blue viability (Hs578T [30]) [nM] | EC50, CellTiter-Blue viability (HDQ-P1 [31]) [nM] | EC50, CellTiter-Blue viability (DU-4475 [32]) [nM] | EC50, CellTiter-Blue viability (CAL-85-1 [33]) [nM]
1 | CC(=O)Nc1cccc(-n2c(=O)n(C3CC3)c(=O)c3c(Nc4ccc(I)cc4F)n(C)c(=O)c(C)c32)c1 [Trametinib] | 2.32 | 45.4 | 79.2 | 71.5 | 0.4 | 53.2 | 14.7 | 1.7 | 1.37 | 16.2 | 0.71 | 137 | 21.1 | 6.45 | – | – | – | – | – | – | – | – | – | – | – | – | – | – | – | – | – | – | – | – | – | – | –
2 | COc1cc2c(NC3CCN(C(C)C)CC3)nc(C3CCCCC3)nc2cc1OCCCN1CCCC1 [UNC0638] | – | 2440 | 2230 | 2440 | 1650 | 2270 | 2660 | 5250 | 1650 | 2720 | 1880 | – | 3520 | 2540 | 2920 | 2200 | 4720 | 4240 | 2140 | 1440 | 2380 | 2100 | 2730 | 2520 | 1650 | 2380 | 2790 | 1950 | 2270 | 2510 | 2400 | 1660 | – | – | – | – | –
3 | CCCS(=O)(=O)Nc1ccc(F)c(C(=O)c2c[nH]c3ncc(-c4ccc(Cl)cc4)cc23)c1F [Vemurafenib] | 421 | – | – | – | > 10000 | – | – | – | 551 | – | – | – | – | – | – | – | – | – | – | – | – | – | – | – | 21.9 | – | – | – | – | – | – | 1680 | 7820 | 9430 | 3680 | 295 | > 10000
